The values below come from patent USRE47689E1, “Compounds for treating spinal muscular atrophy” (PTC Therapeutics, Inc., priority 2011, dated 2019).

Like-named read-outs stand apart in the source and are kept apart here.

One data set deals with Smn protein. Description: Smn protein assay in cultured cells (SMN HTRF). The settings on record: 48 hours; for maximum fold (Fold) increase of Smn protein: SMA patient fibroblast cells, 7-point concentration data, fold increase relative to vehicle control (SMN HTRF); for EC1.5x (concentration giving 1.5-fold Smn protein increase): SMA Type 1 patient fibroblast cells (GM03813), 7-point concentration curve, SMN HTRF, concentration producing 1.5 times Smn protein vs DMSO vehicle control, read-out: EC1.5x for Smn protein expression. It is filed as cell-based, human. Put shortly:
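Smn in SMA fibroblast lysates, measured by anti-SMN HTRF after 48 h compound exposure; EC1.5x from fold change over vehicle.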

Data set [1] deals with SMN2 minigene (full length SMN2 minigene mRNA containing SMN2 exon 7). The data set is described as follows: SMN2 minigene mRNA splicing RT-qPCR assay in cultured cells. The settings on record: Homo sapiens, HEK293-H, read-out: EC1.5x for production of full length SMN2 mRNA. Format: cell-based, human. The method, boiled down:
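Lysates → one-step RT-qPCR, minigene-specific primers (0.4 μM final) + GAPDH multiplex, 40 cycles. FL/GAPDH vs DMSO; EC1.5x, star-binned.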

Where [2] appears, read: HEK293H cells stably transfected with SMN2-A minigene, 24 hours, 7-point concentration curve, 1.5-fold relative to vehicle-treated cells.

One may read the melting point as the temperature of the solid-liquid transition.

In the case of `Cc1cn2cc(-c3cc4ccc(N5C[C@@H](O)[C@H](N6CCCC6)C5)cc4oc3=O)cc2c(C)n1` [Compound 751, 3-(1,3-dimethylpyrrolo[1,2-a]pyrazin-7-yl)-7-[(3′R,4′R)-4′-hydroxy-1,3′-bipyrrolidin-1′-yl]-2H-chromen-2-one], the melting point was 264 to 268 °C. Moreover, in the data set on Smn protein, the “maximum fold (Fold) increase of Smn protein” value (“maximum fold (Fold) increase” below) was “** (fold increase between >1.2 and ≤1.35)”. For the same molecule, in data set [1] (setting [2]), the EC (1.5-fold) is under 0.1 µM.
The molecule `COc1cc(-c2cc3ccc(N4CCN[C@@H](C)C4)cc3oc2=O)ccc1C` [Compound 575, 3-(3-methoxy-4-methylphenyl)-7-[(3S)-3-methylpiperazin-1-yl]-2H-chromen-2-one] displayed a melting point of 166 to 170 °C. In addition, the “maximum fold (Fold) increase” value with Smn protein is “* (maximum fold increase of ≤1.2)”. For the same molecule, in data set [1] (setting [2]), the EC (1.5-fold) lay in the range of 0.3 to 1 µM.
Take `COc1cccn2cc(-c3cc4ccc(N5C[C@@H](C)N[C@@H](C)C5)cc4oc3=O)nc12` [Compound 418, 7-[(3R,5 S)-3,5-dimethylpiperazin-1-yl]-3-(8-methoxyimidazo[1,2-a]pyridin-2-yl)-2H-chromen-2-one]: the melting point was 184 to 186 °C. For the same molecule, in the data set with Smn protein, the EC1.5x (concentration giving 1.5-fold Smn protein increase) lay in the range of 300 to 1000 nM; the “maximum fold (Fold) increase” value is “**** (fold increase between >1.5 and ≤1.65)”. The EC (1.5-fold) in data set [1] (setting [2]) was 1 to 3 µM.
Consider `Cc1cc2cc(-c3cc4ccc(N5CCN(C)CC5)cc4oc3=O)oc2c(C)n1` [Compound 763, 3-(5,7-dimethylfuro[2,3-c]pyridin-2-yl)-7-(4-methylpiperazin-1-yl)-2H-chromen-2-one], for which the melting point lay in the range of 229 to 232 °C. In addition, in the data set with Smn protein, the EC1.5x (concentration giving 1.5-fold Smn protein increase) was under 300 nM; the “maximum fold (Fold) increase” value was “**** (fold increase between >1.5 and ≤1.65)”. Also, the EC (1.5-fold) in data set [1] (setting [2]) is under 0.1 µM.
As for `CN1CCN(c2ccc3cc(-c4cn5cc(C#N)ccc5n4)c(=O)oc3c2)CC1` [Compound 208, 2-[7-(4-methylpiperazin-1-yl)-2-oxo-2H-chromen-3-yl]imidazo[1,2-a]pyridine-6-carbonitrile], the melting point was 291 °C (dec.). Further, the “maximum fold (Fold) increase” value with Smn protein is reported as “* (maximum fold increase of ≤1.2)”. The EC (1.5-fold) in data set [1] (setting [2]) is 1 to 3 µM.
In turn, `Cc1cc2cc(-c3cc4ccc(N5CCN[C@@H](C)C5)cc4oc3=O)oc2c(C)n1` [Compound 804, 3-(5,7-dimethylfuro[2,3-c]pyridin-2-yl)-7-[(3S)-3-methylpiperazin-1-yl]-2H-chromen-2-one] gave a melting point of 253 to 257 °C. Besides, in the data set on Smn protein, the EC1.5x (concentration giving 1.5-fold Smn protein increase) was under 300 nM and the “maximum fold (Fold) increase” value was “***** (fold increase >1.65)”. The EC (1.5-fold) in data set [1] (setting [2]) is under 0.1 µM.
As for `O=c1oc2cc(N3CCNCC3)c(F)cc2cc1-c1nc2ccccc2s1` [Compound 157, 3-(1,3-benzothiazol-2-yl)-6-fluoro-7-(piperazin-1-yl)-2H-chromen-2-one], the melting point was in the range of 255 to 260 °C. Also, in the data set with Smn protein, the “maximum fold (Fold) increase” value is reported as “* (maximum fold increase of ≤1.2)”. Moreover, the EC (1.5-fold) in data set [1] (24 h) was 0.1 to 0.3 µM.
On to `O=c1oc2cc(N3CCNCC3)ccc2cc1-c1cc2ccccn2n1` [Cpd 187, 7-(piperazin-1-yl)-3-(pyrazolo[1,5-a]pyridin-2-yl)-2H-chromen-2-one], for which the melting point is 236 to 238 °C. Further, the “maximum fold (Fold) increase” value in the data set with Smn protein is “** (fold increase between >1.2 and ≤1.35)”. For the same molecule, in data set [1] (setting [2]), the EC (1.5-fold) was in the range of 0.3 to 1 µM.
For the molecule `Cc1cn2cc(-c3cc4ccc(C5CCN(C)CC5)cc4oc3=O)cnc2n1` [Compound 835, 3-(2-methylimidazo[1,2-a]pyrimidin-6-yl)-7-(1-methylpiperidin-4-yl)-2H-chromen-2-one], the melting point lay within 300 to 302 °C. For the same molecule, in the data set on Smn protein, the EC1.5x (concentration giving 1.5-fold Smn protein increase) is 300 to 1000 nM and the “maximum fold (Fold) increase” value was “***** (fold increase >1.65)”. Further, in data set [1] (setting [2]), the EC (1.5-fold) was 0.3 to 1 µM.
Take `COc1cccn2cc(-c3cc4ccc(N5CCN(C)CC5)cc4oc3=O)nc12` [Compound 403, 3-(8-methoxyimidazo[1,2-a]pyridin-2-yl)-7-(4-methylpiperazin-1-yl)-2H-chromen-2-one]: the melting point lay within 202 to 205 °C. Moreover, the “maximum fold (Fold) increase” value with Smn protein is on record as “* (maximum fold increase of ≤1.2)”. For the same molecule, the EC (1.5-fold) in data set [1] (setting [2]) lay within 3 to 30 µM.
Regarding `C[C@@H]1CN(c2ccc3cc(-c4cn5cc(Cl)ccc5n4)c(=O)oc3c2)C[C@H](C)N1` [Compound 105, 3-(6-chloroimidazo[1,2-a]pyridin-2-yl)-7-[(3R,5S)-3,5-dimethylpiperazin-1-yl]-2H-chromen-2-one], the melting point was 220 to 225 °C. Moreover, in the data set with Smn protein, the EC1.5x (concentration giving 1.5-fold Smn protein increase) is 300 to 1000 nM; the “maximum fold (Fold) increase” value is “**** (fold increase between >1.5 and ≤1.65)”. In data set [1] (setting [2]), the EC (1.5-fold) was in the range of 1 to 3 µM.
`O=C(Oc1ccc2cc(-c3nc4ccccc4s3)c(=O)oc2c1)N1CCNCC1` [Compound 41, 3-(1,3-benzothiazol-2-yl)-2-oxo-2H-chromen-7-yl piperazine-1-carboxylate] had a melting point of 221 to 225 °C. Further, in the data set on Smn protein, the “maximum fold (Fold) increase” value is listed as “* (maximum fold increase of ≤1.2)”. Also, the EC (1.5-fold) in data set [1] (24 h) was 1 to 3 µM.
`Cc1csc2nc(-c3cc4ccc(N5CCCN(C)CC5)cc4oc3=O)cn12` [Compound 179, 7-(4-methyl-1,4-diazepan-1-yl)-3-(3-methylimidazo[2,1-b][1,3]thiazol-6-yl)-2H-chromen-2-one] displayed a melting point of 182 to 185 °C. Moreover, the “maximum fold (Fold) increase” value in the data set on Smn protein is “*** (fold increase between >1.35 and ≤1.5)”. In data set [1] (setting [2]), the EC (1.5-fold) was in the range of 1 to 3 µM.
In the case of `CN1CCCN(c2ccc3cc(-c4nc5ccccc5s4)c(=O)oc3c2)CC1` [Cpd 145, 3-(1,3-benzothiazol-2-yl)-7-(4-methyl-1,4-diazepan-1-yl)-2H-chromen-2-one], the melting point lay in the range of 217 to 220 °C. In the data set with Smn protein, the “maximum fold (Fold) increase” value was “** (fold increase between >1.2 and ≤1.35)”. For the same molecule, the EC (1.5-fold) in data set [1] (setting [2]) lay in the range of 0.1 to 0.3 µM.
In turn, `C[C@@H]1CN(c2ccc3cc(-c4cn(-c5ccccn5)cn4)c(=O)oc3c2)C[C@H](C)N1` [Cpd 433, 7-[(3R,5S)-3,5-dimethylpiperazin-1-yl]-3-[1-(pyridin-2-yl)-1H-imidazol-4-yl]-2H-chromen-2-one] showed a melting point of 201 to 206 °C. In addition, the “maximum fold (Fold) increase” value in the data set on Smn protein was “* (maximum fold increase of ≤1.2)”. In addition, the EC (1.5-fold) in data set [1] (setting [2]) was in the range of 3 to 30 µM.
Molecule `Cc1cn2cc(-c3cc4ccc(N5CCC(NC(CO)CO)CC5)cc4oc3=O)nc2c(C)n1` [Compound 929, 7-{4-[(1,3-dihydroxypropan-2-yl)amino]piperidin-1-yl}-3-(6,8-dimethylimidazo[1,2-a]pyrazin-2-yl)-2H-chromen-2-one] displayed a melting point of 251 to 256 °C. Moreover, in the data set with Smn protein, the EC1.5x (concentration giving 1.5-fold Smn protein increase) was 1000 to 3000 nM; the “maximum fold (Fold) increase” value is “*** (fold increase between >1.35 and ≤1.5)”. For the same molecule, the EC (1.5-fold) in data set [1] (setting [2]) is under 0.1 µM.
The molecule `CN1CCN(c2ccc3cc(-c4cn(C)c5ccccc45)c(=O)oc3c2)CC1` [Compound 259, 3-(1-methyl-1H-indol-3-yl)-7-(4-methylpiperazin-1-yl)-2H-chromen-2-one] had a melting point of 185 to 187 °C. The “maximum fold (Fold) increase” value in the data set with Smn protein was “* (maximum fold increase of ≤1.2)”. Further, the EC (1.5-fold) in data set [1] (setting [2]) is 1 to 3 µM.
In the same order, the values of `Cc1cccn2cc(-c3cc4c(F)cc(N5CCN(C)CC5)cc4oc3=O)nc12` [Compound 423, 5-fluoro-3-(8-methylimidazo[1,2-a]pyridin-2-yl)-7-(4-methylpiperazin-1-yl)-2H-chromen-2-one] are 232 to 237 °C, “* (maximum fold increase of ≤1.2)” and 1 to 3 µM.
Take `Cc1ccn2cc(-c3cc4ccc(N5CCN[C@H](C)C5)cc4oc3=O)nc2n1` [Compound 228, 3-(7-methylimidazo[1,2-a]pyrimidin-2-yl)-7-[(3R)-3-methylpiperazin-1-yl]-2H-chromen-2-one]: the melting point was in the range of 297 to 300 °C. Also, in the data set with Smn protein, the “maximum fold (Fold) increase” value is “** (fold increase between >1.2 and ≤1.35)”. In data set [1] (setting [2]), the EC (1.5-fold) was 0.1 to 0.3 µM.
Turning to `Cc1cn2cc(-c3cc4ccc(N5CCN(C(C)C)CC5)cc4oc3=O)nc2cn1` [Compound 833, 3-(6-methylimidazo[1,2-a]pyrazin-2-yl)-7-[4-(propan-2-yl)piperazin-1-yl]-2H-chromen-2-one], the melting point was 275 to 280 °C. Further, in the data set on Smn protein, the EC1.5x (concentration giving 1.5-fold Smn protein increase) is under 300 nM and the “maximum fold (Fold) increase” value is listed as “***** (fold increase >1.65)”. Besides, in data set [1] (setting [2]), the EC (1.5-fold) was under 0.1 µM.
`Cc1ccn2cc(-c3cc4ccc(O[C@@H]5CCNC5)cc4oc3=O)nc2n1.Cl.Cl` [Compound 322, 3-(7-methylimidazo [1,2-a]pyrimidin-2-yl)-7-[(3R)-pyrrolidin-3-yloxy]-2H-chromen-2-one hydrochloride (1:2)] yielded a melting point of 292 to 296 °C. The “maximum fold (Fold) increase” value in the data set on Smn protein is “** (fold increase between >1.2 and ≤1.35)”. For the same molecule, the EC (1.5-fold) in data set [1] (setting [2]) was 0.3 to 1 µM.
